Experimental data: PubChem BioAssay AID651974 (The Scripps Research Institute Molecular Screening Center, 2013)
Activity calls are given as the source filed them. No rule for the calls is given here.

Test: GAL4-VP16 transactivation reporter inhibitors, late-stage follow-up, counter-screen for LRH-1 inverse agonist project, cell-based, luminescence, dose response (AID 651974)
Details: HEK293 cells transfected with Gal4-VP16 and pGL4.31 luciferase reporter
With `COC(=O)c1ccc(NC(=O)CSc2nn3c(=O)c(C)nnc3s2)cc1` the IC50 was > 35.9 µM (inactive).
For `O=C(COC(=O)c1ccc(Br)cc1)Nc1ccccc1Br`, the IC50 was > 35.9 µM (inactive).
For `Cc1cc(C)c2nc(NC(=O)c3ccc([N+](=O)[O-])o3)sc2c1`, the IC50 was > 35.9 µM (inactive).
In the case of `O=C(COc1ccc2c3c(c(=O)oc2c1)CCCC3)NCc1ccccn1`, the IC50 is reported as > 35.9 µM (inactive).
With `CCCc1cc(=O)oc2cc(OCC(=O)NCc3ccccn3)ccc12` the IC50 was > 35.9 µM (inactive).
For `CCOc1ccc(NC(=O)COC(=O)c2ccc3c(c2)OCCO3)cc1`, the IC50 was > 35.9 µM (inactive).
In the case of `O=C(OCC(=O)N1CCN(C(=O)COC(=O)c2ccc(O)cc2O)CC1)c1ccc(O)cc1O`, the IC50 is reported as > 35.9 µM (inactive).
In the case of `O=C(Nc1nc2c(Cl)cccc2s1)c1ccc([N+](=O)[O-])o1`, the IC50 is reported as > 35.9 µM (inactive).
For `COc1ccc(C2(C)NC(=O)N(CC(=O)NCCC3=CCCCC3)C2=O)cc1OC` (stereo not drawn), the IC50 was > 35.9 µM (inactive).
In the case of `O=C(NCc1ccco1)c1nn(-c2ccccc2)c(=O)c2ccccc12`, the IC50 is reported as > 35.9 µM (inactive).
With `COC(=O)c1ccc(CNC(=O)COC(=O)c2cc(Cl)nc(Cl)c2)cc1` the IC50 was > 35.9 µM (inactive).
For `O=C(Nc1ccccc1)c1oc2ccccc2c1NC(=O)C1CC1`, the IC50 was > 35.9 µM (inactive).
In the case of `Cc1cccc(NC(=O)COC(=O)Cc2cccs2)c1C`, the IC50 is reported as > 35.9 µM (inactive).
For `CCc1cc(=O)[nH]c(SCC(=O)Nc2ccc3c(c2)OCCO3)n1`, the IC50 was > 35.9 µM (inactive).
For `Cc1cc(Br)ccc1NC(=O)CN1C(=O)C2CC=CCC2C1=O` (stereo not drawn), the IC50 was > 35.9 µM (inactive).
In the case of `CCOc1ccc(NC(=O)CSc2nncc(=O)n2N)cc1`, the IC50 is reported as > 35.9 µM (inactive).
With `COc1ccc(NC(=O)CSc2sc3c(O)cc(=O)[nH]c3c2C#N)c(OC)c1` the IC50 was > 35.9 µM (inactive).
For `Cc1cc(Br)ccc1NC(=O)CN1C(=O)CCC1=O`, the IC50 was > 35.9 µM (inactive).
With `COC(=O)c1ccc(NC(=O)CSc2ccc(-c3ccccn3)nn2)cc1` the IC50 was > 35.9 µM (inactive).
For `O=C(Nc1ccc(Br)cn1)c1ccc([N+](=O)[O-])o1`, the IC50 was > 35.9 µM (inactive).
In the case of `Cc1cccc(NC(=O)COC(=O)CN2C(=O)c3ccccc3C2=O)c1C`, the IC50 is reported as > 35.9 µM (inactive).
With `Cc1nn(CC(=O)Nc2ccc3c(c2)OCCO3)c(C)c1[N+](=O)[O-]` the IC50 was > 35.9 µM (inactive).
For `CCCc1cc(=O)oc2cc(C)cc(OCC(=O)NC3CC3)c12`, the IC50 was > 35.9 µM (inactive).
With `O=C(COC(=O)CCN1C(=O)C2CC=CCC2C1=O)NCCc1ccc(F)cc1` (stereo not drawn) the IC50 was > 35.9 µM (inactive).
With `CCOc1ccc(NC(=O)CSc2nnc(C(C)C)n2CC)cc1` the IC50 was > 35.9 µM (inactive).
In the case of `COC(=O)c1ccc(NC(=O)COc2cccc(-n3cnnn3)c2)cc1`, the IC50 is reported as > 35.9 µM (inactive).
In the case of `Cc1ccc(NC(=O)CSc2sc3c(O)cc(=O)[nH]c3c2C#N)c(F)c1`, the IC50 is reported as > 35.9 µM (inactive).
With `COC(=O)c1ccc(NC(=O)CN2CCN(c3ccc(Cl)cc3)CC2)cc1` the IC50 was > 35.9 µM (inactive).
For `CN1CCN(c2ccc(S(=O)(=O)N3CCCCC3)cc2NC(=O)COc2ccc([N+](=O)[O-])cc2)CC1`, the IC50 was > 35.9 µM (inactive).
In the case of `CCOc1ccc(NC(=O)CSc2nccn(-c3ccc4c(c3)OCCO4)c2=O)cc1`, the IC50 is reported as > 35.9 µM (inactive).
For `CCOc1ccc(NC(=O)CSc2nc3[nH]ncc3c(=O)[nH]2)cc1`, the IC50 was > 35.9 µM (inactive).
In the case of `COc1ccc(NC(=O)CSc2nnc3ccc(-c4cccnc4)nn23)cc1OC`, the IC50 is reported as > 35.9 µM (inactive).
With `CCCN(CC(=O)Nc1ccc(C(C)=O)cc1)CC(=O)Nc1ccccc1C` the IC50 was > 35.9 µM (inactive).
For `COc1ccc(NC(=O)COC(=O)c2cc(S(=O)(=O)N3CCCC3)ccc2O)cc1`, the IC50 was > 35.9 µM (inactive).
For `O=C(COC(=O)c1ccc[n+]([O-])c1)Nc1ccc([N+](=O)[O-])cc1Cl`, the IC50 was > 35.9 µM (inactive).
In the case of `COc1ccc(CCNC(=O)CSc2nc3[nH]c(=O)cc(O)c3s2)cc1`, the IC50 is reported as > 35.9 µM (inactive).
In the case of `O=C(CN1C(=O)CCC1=O)Nc1ccc(Br)cc1`, the IC50 is reported as > 35.9 µM (inactive).
In the case of `COc1ccc(CCNC(=O)COC(=O)Cc2ccccc2[N+](=O)[O-])cc1`, the IC50 is reported as > 35.9 µM (inactive).
In the case of `NC(=O)C1CCN(C(=O)COc2ccc3c4c(c(=O)oc3c2)CCCC4)CC1`, the IC50 is reported as > 35.9 µM (inactive).
In the case of `COc1ccc(NC(=O)CS(=O)(=O)c2ccc(C)cc2)c(OC)c1`, the IC50 is reported as > 35.9 µM (inactive).
In the case of `COC(=O)c1ccc(NC(=O)CSc2nc3ncccc3[nH]2)cc1`, the IC50 is reported as > 35.9 µM (inactive).
With `CCCc1nnc(SCC(=O)Nc2ccc(C(=O)OCC)cc2)o1` the IC50 was > 35.9 µM (inactive).
For `Cc1cc(Br)ccc1NC(=O)CSc1nnc(CN2CCOCC2)n1C`, the IC50 was > 35.9 µM (inactive).
In the case of `CCOc1ccc(NC(=O)COC(=O)CC2CCCCC2)cc1`, the IC50 is reported as > 35.9 µM (inactive).
In the case of `CC(=O)Nc1ccc(NC(=O)CSc2ccc(-c3ccco3)nn2)cc1`, the IC50 is reported as > 35.9 µM (inactive).
With `COc1ccccc1Oc1nnnn1-c1ccc(C(N)=O)cc1` the IC50 was > 35.9 µM (inactive).
In the case of `O=C(CSc1nnc(CNC(=O)c2ccccc2F)o1)Nc1ccc2c(c1)OCCO2`, the IC50 is reported as > 35.9 µM (inactive).
In the case of `Cc1ccc(NC(=O)COC(=O)C(NS(=O)(=O)c2ccc(Cl)cc2)C(C)O)cc1C` (stereo not drawn), the IC50 is reported as > 35.9 µM (inactive).
